Measured values as given in US7462717B2, “C6-and C9-substituted chromeno[4,3-c]isoxazoline derivatives and their use as anti-depressants” (Janssen Pharmaceutica N.V., priority 2002, dated 2008).

What was measured:
hα2B receptor = biological target: T1, hα2B receptor (Homo sapiens, UniProt P18089); experiment: Radioligand binding experiment for α2B-adrenergic receptor ([3H]-raulwolscine); conditions: membranes of CHO cells transfected with human α2B receptor; [3H]raulwolscine 1 nM
T1 construct: expressed in transfected cells
T1 sequence (P18089 1-450): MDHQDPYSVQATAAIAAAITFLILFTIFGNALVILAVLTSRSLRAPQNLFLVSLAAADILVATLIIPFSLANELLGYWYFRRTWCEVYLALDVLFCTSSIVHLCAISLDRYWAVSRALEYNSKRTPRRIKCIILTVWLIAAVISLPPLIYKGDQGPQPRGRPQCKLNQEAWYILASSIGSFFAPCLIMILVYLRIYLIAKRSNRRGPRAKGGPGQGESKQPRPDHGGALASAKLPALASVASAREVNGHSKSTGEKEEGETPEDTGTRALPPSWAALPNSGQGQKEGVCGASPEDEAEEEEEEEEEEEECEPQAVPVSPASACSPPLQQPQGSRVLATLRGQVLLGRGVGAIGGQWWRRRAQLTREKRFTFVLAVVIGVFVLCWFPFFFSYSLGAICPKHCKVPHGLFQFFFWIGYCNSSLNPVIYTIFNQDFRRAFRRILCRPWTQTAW
Description: (§1) The interaction of the compounds of Formula (I) with hα2-receptors and h5-HT-transporters was assessed in in vitro radioligand binding experiments. In general, a low concentration of a radioligand with a high binding affinity for a particular receptor or transporter is incubated with a sample of a tissue preparation enriched in a particular receptor or transporter or with a preparation of cells expressing cloned human receptors in a buffered medium. During the incubation, the radioligand binds to the receptor or transporter. When equilibrium of binding is reached, the receptor bound radioactivity is separated from the non-bound radioactivity, and the receptor- or transporter-bound activity is counted. The interaction of the test compounds with the receptor is assessed in competition binding experiments. Various concentrations of the test compound are added to the incubation mixture containing the receptor- or transporter preparation and the radioligand. The test compound in proportion to its binding affinity and its concentration inhibits binding of the radioligand. The radioligand used for hα2A, hα2B and hα2C receptor binding was [^3H]-raulwolscine and for the h5-HT transporter was [^3H]paroxetine.
(§2) CHO cells, stabile transfected with human adrenergic-α2A-, -α2B or α2C receptor cDNA, were cultured in Dulbecco's Modified Eagle's Medium (DMEM)/Nutrient mixture Ham's F12 (ratio 1:1) (Gibco, Gent-Belgium) supplemented with 10% heat inactivated fetal calf serum (Life Technologies, Merelbeke-Belgium) and antibiotics (100 IU/ml penicillin G, 100 μg/ml streptomycin sulphate, 110 μg/ml pyruvic acid and 100 μg/ml L-glutamine). One day before collection, cells were induced with 5 mM sodiumbutyrate. Upon 80-90% of confluence, cells were scraped in phosphate buffered saline without Ca^2+ and Mg^2+ and collected by centrifugation at 1500×g for 10 min. The cells were homogenised in Tris-HCl 50 mM using an Ultraturrax homogenizer and centrifuged for 10 min at 23,500×g. The pellet was washed once by resuspension and rehomogenization and the final pellet was resuspended in Tris-HCl, divided in 1 ml aliquots and stored at −70° C.
(§3) Membranes were thawed and re-homogenized in incubation buffer (glycylglycine 25 mM, pH 8.0). In a total volume of 500 μl, 2-10 μg protein was incubated with [^3H]raulwolscine (NET-722) (New England Nuclear, USA) (1 nM final concentration) with or without competitor for 60 min at 25° C. followed by rapid filtration over GF/B filter using a Filtermate 196 harvester (Packard, Meriden, Conn.). Filters were rinsed extensively with ice-cold rinsing buffer (Tris-HCl 50 mM pH 7.4). Filter-bound radioactivity was determined by scintillation counting in a Topcount (Packard, Meriden, Conn.) and results were expressed as counts per minute (cpm). Non-specific binding was determined in the presence of 1 μM oxymetazoline for hα2A- and hα2B-receptors and 1 μM spiroxatrine for hα2C receptors.
(§4) Data from assays in the presence of compound were calculated as a percentage of total binding measured in the absence of test compound. Inhibition curves, plotting percent of total binding versus the log value of the concentration of the test compound, were automatically generated, and sigmoidal inhibition curves were fitted using non-linear regression. The pIC50 values of test compounds were derived from individual curves. All compounds according to Formula (I) produced an inhibition at least at the hα2A site (but often also at the hα2B and hα2C sites) and simultaneously at the 5-HT transporter site of more than 50% (PIC50) at a test concentration ranging between 10^−6 M and 10^−9 M in a concentration-dependent manner.

hα2A receptor = biological target: T2, hα2A receptor (Homo sapiens, UniProt P08913); experiment: Radioligand binding experiment for α2A-adrenergic receptor ([3H]-raulwolscine); conditions: membranes of CHO cells transfected with human α2A receptor; [3H]raulwolscine 1 nM
T2 construct: expressed in transfected cells
T2 sequence (P08913 1-465): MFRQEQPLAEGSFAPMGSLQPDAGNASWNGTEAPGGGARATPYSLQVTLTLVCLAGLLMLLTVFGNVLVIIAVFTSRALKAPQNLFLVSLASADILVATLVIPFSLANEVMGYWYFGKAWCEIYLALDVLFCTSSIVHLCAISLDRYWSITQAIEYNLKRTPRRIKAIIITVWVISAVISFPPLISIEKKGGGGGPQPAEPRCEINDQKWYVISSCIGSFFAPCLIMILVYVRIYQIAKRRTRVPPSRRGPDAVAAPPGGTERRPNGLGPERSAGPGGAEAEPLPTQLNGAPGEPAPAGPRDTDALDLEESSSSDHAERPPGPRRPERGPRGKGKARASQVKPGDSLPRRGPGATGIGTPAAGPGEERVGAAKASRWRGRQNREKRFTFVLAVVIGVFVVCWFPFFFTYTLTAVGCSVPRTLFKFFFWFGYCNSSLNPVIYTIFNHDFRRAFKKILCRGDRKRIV
Description: as §1, §2, §3, §4

hα2C receptor = biological target: T3, hα2C receptor (Homo sapiens, UniProt P18825); experiment: Radioligand binding experiment for α2C-adrenergic receptor ([3H]-raulwolscine); conditions: membranes of CHO cells transfected with human α2C receptor; [3H]raulwolscine 1 nM
T3 construct: expressed in transfected cells
T3 sequence (P18825 1-462): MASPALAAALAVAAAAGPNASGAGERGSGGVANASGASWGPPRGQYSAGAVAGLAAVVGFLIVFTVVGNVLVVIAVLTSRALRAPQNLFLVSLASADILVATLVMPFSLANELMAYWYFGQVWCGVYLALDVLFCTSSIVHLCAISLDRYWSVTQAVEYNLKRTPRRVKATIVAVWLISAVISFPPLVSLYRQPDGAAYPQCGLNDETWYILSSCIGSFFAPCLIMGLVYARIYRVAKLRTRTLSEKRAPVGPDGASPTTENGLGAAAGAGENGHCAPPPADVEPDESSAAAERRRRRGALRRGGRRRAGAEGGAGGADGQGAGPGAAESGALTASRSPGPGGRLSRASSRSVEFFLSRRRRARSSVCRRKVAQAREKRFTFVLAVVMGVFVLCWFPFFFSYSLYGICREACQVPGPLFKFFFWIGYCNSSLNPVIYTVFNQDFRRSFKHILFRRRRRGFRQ
Description: as §1, §2, §3, §4

h5-HT transporter = biological target: T4, h5-HT transporter (Homo sapiens, UniProt P31645); experiment: Radioligand binding experiment for 5-HT transporter ([3H]paroxetine); conditions: human platelet membranes; [3H]paroxetine 0.5 nM; read-out: 5-HTT (converted)
T4 construct: Human platelet membranes (Oceanix Biosciences Corporation, Hanover, Md., USA) were thawed; tissue Oceanix Biosciences Corporation; host or cells: human platelet membranes
Description: as §1
Human platelet membranes (Oceanix Biosciences Corporation, Hanover, Md., USA) were thawed, diluted in buffer (Tris-HCl 50 mM, 120 mM NaCl and 5 mM KCl) and quickly (max 3 s) homogenised with an Ultraturrax homogenizer. In a total volume of 250 μL, 50-100 μg protein was incubated with [^3H]paroxetine (NET-869) (New England Nuclear, USA) (0.5 nM final concentration) with or without competitor for 60 min at 25° C. Incubation was stopped by rapid filtration of the incubation mixture over GF/B filters, pre-wetted with 0.1% polyethyleneamine, using a Filtermate 196 harvester (Packard, Meriden, Conn.). Filters were rinsed extensively with ice-cold buffer and radioactivity on the filters was counted in a Topcount liquid scintillation counter (Packard, Meriden, Conn.). Data were expressed as cpm. Imipramine (at 1 μM final concentration) was used to determine the non-specific binding.
as §4

T4 sequence (P31645 whole entry): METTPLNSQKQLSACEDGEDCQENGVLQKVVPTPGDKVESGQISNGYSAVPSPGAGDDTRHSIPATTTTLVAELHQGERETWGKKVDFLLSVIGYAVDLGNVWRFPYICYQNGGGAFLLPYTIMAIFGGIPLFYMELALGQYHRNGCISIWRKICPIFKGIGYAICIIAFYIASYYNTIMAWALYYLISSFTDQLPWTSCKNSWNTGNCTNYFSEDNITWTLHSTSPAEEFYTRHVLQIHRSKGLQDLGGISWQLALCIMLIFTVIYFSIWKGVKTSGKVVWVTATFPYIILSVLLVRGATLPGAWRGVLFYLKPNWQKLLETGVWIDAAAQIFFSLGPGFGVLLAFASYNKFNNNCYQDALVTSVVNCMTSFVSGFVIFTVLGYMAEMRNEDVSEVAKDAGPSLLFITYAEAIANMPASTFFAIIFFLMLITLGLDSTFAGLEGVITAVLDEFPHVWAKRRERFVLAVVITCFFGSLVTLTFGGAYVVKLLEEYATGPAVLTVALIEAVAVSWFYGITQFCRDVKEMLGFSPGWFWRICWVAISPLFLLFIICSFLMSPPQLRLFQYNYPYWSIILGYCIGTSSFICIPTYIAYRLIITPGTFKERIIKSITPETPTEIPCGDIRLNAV

IC50 (hα2B receptor) [nM] | IC50 (hα2A receptor) [nM] | IC50 (hα2C receptor) [nM] | IC50 (h5-HT transporter) [nM] | SMILES
2 | 7.94 | 1.58 | 50.1 | COc1cccc2c1OC[C@@H]1C2=NO[C@H]1CN1CCN(C/C(C)=C/c2ccccc2)CC1 (relative stereo) [Compound 6, 6-methoxy-3-[4-(2-methyl-3-phenyl-allyl)-piperazin-1-ylmethyl]-3a,4-dihydro-3H-chromeno[4,3-c]isoxazole]
15.8 | 63.1 | 6.31 | 398 | COc1cc2c(c(Nc3ccncc3)c1OC)OC[C@@H]1C2=NO[C@H]1CN1CCN(C/C(C)=C/c2ccc(F)cc2)CC1 (relative stereo) [Compound 21, (3-{4-[3-(4-fluoro-phenyl)-2-methyl-allyl]-piperazin-1-ylmethyl}-7,8-dimethoxy-3a,4-dihydro-3H-chromeno [4,3-c]isoxazol-6-yl)-pyridin-4-yl-amine]
3.98 | 39.8 | 7.94 | 25.1 | CC(=Cc1ccccc1)CN1CCN(CC2ON=C3c4cccc(NCCN5CCCC5)c4OCC32)CC1 (centres unmarked) [Compound 16]
2 | 31.6 | 3.98 | 25.1 | CC(=O)Nc1cccc2c1OCC1C2=NOC1CN1CCN(CC(C)=Cc2ccccc2)CC1 (centres unmarked) [Compound 22]
1.26 | 7.94 | 2 | 50.1 | C/C(=C\c1ccccc1)CN1CCN(C[C@@H]2ON=C3c4cccc(O)c4OC[C@H]32)CC1 (relative stereo) [Compound 7, 3-[4-(2-methyl-3-phenyl-allyl)-piperazin-1-ylmethyl]-3a,4-dihydro-3H-chromeno[4,3-c]isoxazol-6-ol]
1.58 | 6.31 | 0.794 | 39.8 | COc1cc2c(c(N3CCN(C)CC3)c1OC)OC[C@@H]1C2=NO[C@H]1CN1CCN(C/C(C)=C/c2ccccc2)CC1 (single isomer, unassigned) [Compound 2, 7,8-dimethoxy-3-[4-(2-methyl-3-phenyl-allyl)-piperazin-1-ylmethyl]-6-(4-methyl-piperazin-1-yl)-3a,4-dihydro-3H-chromeno [4,3-c]isoxazole]
2.51 | 3.16 | 3.16 | 50.1 | CC(=Cc1ccccc1)CN1CCN(CC2ON=C3c4cccc(OCCO)c4OCC32)CC1 (centres unmarked) [Compound 11]
– | 1.58 | 0.398 | 31.6 | COc1cc2c(c(C)c1OC)OC[C@@H]1C2=NO[C@H]1CN1CCN(C/C(C)=C/c2ccccc2)CC1 (single isomer, unassigned) [Compound 3, 7,8-dimethoxy-6-methyl-3-[4-(2-methyl-3-phenyl-allyl)-piperazin-1-ylmethyl]-3a,4-dihydro-3H-chromeno[4,3-c]isoxazole]
3.16 | 2.51 | 1.26 | 1000 | COCC(=O)OCCOc1cccc2c1C1=NOC(CN3CCN(CC(C)=Cc4ccccc4)CC3)C1CO2 (centres unmarked) [Compound 14]
50.1 | 63.1 | 20 | 126 | CC(=Cc1ccccc1)CN1CCN(CC2ON=C3c4cccc(NCc5ccccc5)c4OCC32)CC1 (centres unmarked) [Compound 23]
6.31 | 126 | 3.98 | 126 | COCC(=O)OCCOc1cccc2c1OCC1C2=NOC1CN1CCN(CC(C)=Cc2ccccc2)CC1 (centres unmarked) [Compound 12]
25.1 | 79.4 | 31.6 | 126 | COc1cc2c(c(N3CCC3=O)c1OC)OCC1C2=NOC1CN1CCN(CC(C)=Cc2ccc(F)cc2)CC1 (centres unmarked) [Compound 20]
– | 2 | 1 | 12.6 | COc1cc2c(c(Br)c1OC)OCC1C2=NOC1CN1CCN(C/C(C)=C/c2ccccc2)CC1 (centres unmarked) [Compound 1, 6-Bromo-7,8-dimethoxy-3-[4-(2-methyl-3-phenyl-allyl)-piperazin-1-ylmethyl]-3a,4-dihydro-3H-chromeno[4,3-c]isoxazole]
